Data: patent US20170045513A1, “METHODS OF DIAGNOSING CELIAC DISEASE USING IP-10” (ImmusanT, Inc., priority 2014, published 2017)
Non-standard residues stand in square brackets, D forms with d. pGlu = O=C1CC[C@@H](C(=O)O)N1

Test system: gluten-reactive T cells
Assay: Overnight IFNγ ELISpot assay with fresh PBMC
Type: cell-based, human
Details: for Percent of maximal response to individual gluten peptides, ELISp: after oral gluten challenge; for IFNγ ELISpot % max Mean: n = 5, blood after oral gluten challenge, individual peptides 5 μM (Peptide 2* of P14, Pepscan: 10 μg/mL (5.45 μM))
In short: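 Read-out is IFNγ spot-forming units per well, counted automatically after overnight culture of fresh PBMC (0.4 million/well) with single peptides (duplicate) or pools (triplicate). Donors: HLA-DQ2.5+ celiac patients on gluten-free diet, bled pre- and day 6 after 3-day oral gluten challenge.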

(pE)QPYPQPELPYPQPQ-amide ([pGlu]QPYPQPELPYPQPQ-NH2; SMILES CC(C)C[C@H](NC(=O)[C@H](CCC(=O)O)NC(=O)[C@@H]1CCCN1C(=O)[C@H](CCC(N)=O)NC(=O)[C@@H]1CCCN1C(=O)[C@H](Cc1ccc(O)cc1)NC(=O)[C@@H]1CCCN1C(=O)[C@H](CCC(N)=O)NC(=O)[C@@H]1CCC(=O)N1)C(=O)N1CCC[C@H]1C(=O)N[C@@H](Cc1ccc(O)cc1)C(=O)N1CCC[C@H]1C(=O)N[C@@H](CCC(N)=O)C(=O)N1CCC[C@H]1C(=O)N[C@@H](CCC(N)=O)C(N)=O) [Peptide 15]
Percent of maximal response to individual gluten peptides, ELISp (Subject 3, Max. 18 SFU): 11 % of max
Percent of maximal response to individual gluten peptides, ELISp (Subject 4, Max. 36 SFU): 17 % of max
Percent of maximal response to individual gluten peptides, ELISp (Subject 6, Max. 16 SFU): 31 % of max
Percent of maximal response to individual gluten peptides, ELISp (Subject 8, Max. 17 SFU): 6 % of max
Percent of maximal response to individual gluten peptides, ELISp (Subject 10, Max. 11 SFU): 0 % of max
IFNγ ELISpot % max Mean: 13 % max

(pE)QPFPQPEQPFSQQ-amide ([pGlu]QPFPQPEQPFSQQ-NH2; SMILES NC(=O)CC[C@H](NC(=O)[C@H](CCC(N)=O)NC(=O)[C@H](CO)NC(=O)[C@H](Cc1ccccc1)NC(=O)[C@@H]1CCCN1C(=O)[C@H](CCC(N)=O)NC(=O)[C@H](CCC(=O)O)NC(=O)[C@@H]1CCCN1C(=O)[C@H](CCC(N)=O)NC(=O)[C@@H]1CCCN1C(=O)[C@H](Cc1ccccc1)NC(=O)[C@@H]1CCCN1C(=O)[C@H](CCC(N)=O)NC(=O)[C@@H]1CCC(=O)N1)C(N)=O) [Peptide 7]
Percent of maximal response to individual gluten peptides, ELISp (Subject 3, Max. 18 SFU): 0 % of max
Percent of maximal response to individual gluten peptides, ELISp (Subject 4, Max. 36 SFU): 11 % of max
Percent of maximal response to individual gluten peptides, ELISp (Subject 6, Max. 16 SFU): 6 % of max
Percent of maximal response to individual gluten peptides, ELISp (Subject 8, Max. 17 SFU): 0 % of max
Percent of maximal response to individual gluten peptides, ELISp (Subject 10, Max. 11 SFU): 9 % of max
IFNγ ELISpot % max Mean: 5 % max

(pE)QPFPQPEQPIPVQPEQS-amide ([pGlu]QPFPQPEQPIPVQPEQS-NH2; SMILES CC[C@H](C)[C@H](NC(=O)[C@@H]1CCCN1C(=O)[C@H](CCC(N)=O)NC(=O)[C@H](CCC(=O)O)NC(=O)[C@@H]1CCCN1C(=O)[C@H](CCC(N)=O)NC(=O)[C@@H]1CCCN1C(=O)[C@H](Cc1ccccc1)NC(=O)[C@@H]1CCCN1C(=O)[C@H](CCC(N)=O)NC(=O)[C@@H]1CCC(=O)N1)C(=O)N1CCC[C@H]1C(=O)N[C@H](C(=O)N[C@@H](CCC(N)=O)C(=O)N1CCC[C@H]1C(=O)N[C@@H](CCC(=O)O)C(=O)N[C@@H](CCC(N)=O)C(=O)N[C@@H](CO)C(N)=O)C(C)C) [Peptide 4]
Percent of maximal response to individual gluten peptides, ELISp (Subject 3, Max. 18 SFU): 17 % of max
Percent of maximal response to individual gluten peptides, ELISp (Subject 4, Max. 36 SFU): 44 % of max
Percent of maximal response to individual gluten peptides, ELISp (Subject 6, Max. 16 SFU): 19 % of max
Percent of maximal response to individual gluten peptides, ELISp (Subject 8, Max. 17 SFU): 12 % of max
Percent of maximal response to individual gluten peptides, ELISp (Subject 10, Max. 11 SFU): 27 % of max
IFNγ ELISpot % max Mean: 24 % max

(pE)QPFPQPEQPFPLQPEQP-amide ([pGlu]QPFPQPEQPFPLQPEQP-NH2; SMILES CC(C)C[C@H](NC(=O)[C@@H]1CCCN1C(=O)[C@H](Cc1ccccc1)NC(=O)[C@@H]1CCCN1C(=O)[C@H](CCC(N)=O)NC(=O)[C@H](CCC(=O)O)NC(=O)[C@@H]1CCCN1C(=O)[C@H](CCC(N)=O)NC(=O)[C@@H]1CCCN1C(=O)[C@H](Cc1ccccc1)NC(=O)[C@@H]1CCCN1C(=O)[C@H](CCC(N)=O)NC(=O)[C@@H]1CCC(=O)N1)C(=O)N[C@@H](CCC(N)=O)C(=O)N1CCC[C@H]1C(=O)N[C@@H](CCC(=O)O)C(=O)N[C@@H](CCC(N)=O)C(=O)N1CCC[C@H]1C(N)=O) [Peptide 6]
Percent of maximal response to individual gluten peptides, ELISp (Subject 3, Max. 18 SFU): 11 % of max
Percent of maximal response to individual gluten peptides, ELISp (Subject 4, Max. 36 SFU): 56 % of max
Percent of maximal response to individual gluten peptides, ELISp (Subject 6, Max. 16 SFU): 31 % of max
Percent of maximal response to individual gluten peptides, ELISp (Subject 8, Max. 17 SFU): 0 % of max
Percent of maximal response to individual gluten peptides, ELISp (Subject 10, Max. 11 SFU): 9 % of max
IFNγ ELISpot % max Mean: 21 % max
